Source: patent publication US10112937B2, “P2X7 modulators and methods of use” (Janssen Pharmaceutica NV, priority 2013, dated 2018)

Molecular target: human P2X7 (Homo sapiens (Human), UniProt Q99572)
Assay: P2X7 antagonism in human PBMCs (IL-1β release after LPS + Bz-ATP, ELISA)
Type: cell-based
Conditions: human PBMCs, test compound 1 μM

Sequence of human P2X7 (Q99572 whole entry): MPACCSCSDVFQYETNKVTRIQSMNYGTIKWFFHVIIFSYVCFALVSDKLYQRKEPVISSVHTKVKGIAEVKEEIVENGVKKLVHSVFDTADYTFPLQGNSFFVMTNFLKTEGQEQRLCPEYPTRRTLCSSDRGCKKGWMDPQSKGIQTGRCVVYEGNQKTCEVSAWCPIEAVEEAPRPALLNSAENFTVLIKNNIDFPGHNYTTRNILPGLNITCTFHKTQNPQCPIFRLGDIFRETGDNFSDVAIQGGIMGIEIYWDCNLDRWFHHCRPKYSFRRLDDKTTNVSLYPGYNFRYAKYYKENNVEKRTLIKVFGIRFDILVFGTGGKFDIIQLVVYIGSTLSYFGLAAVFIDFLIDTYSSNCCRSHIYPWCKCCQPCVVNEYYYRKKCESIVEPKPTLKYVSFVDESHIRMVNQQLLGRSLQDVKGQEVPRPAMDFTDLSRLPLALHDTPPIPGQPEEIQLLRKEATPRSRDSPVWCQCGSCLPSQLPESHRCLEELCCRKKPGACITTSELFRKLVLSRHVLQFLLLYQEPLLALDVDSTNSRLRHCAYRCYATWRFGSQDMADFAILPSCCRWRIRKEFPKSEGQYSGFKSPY

Row | SMILES | PBMC 1 μM (% control)
1 | Cn1nc(-c2cccnc2)c2c1CN(C(=O)c1cccc(C(F)(F)F)c1Cl)CC2 [Example 108, 6-{[2-Chloro-3-(trifluoromethyl)phenyl]carbonyl}-1-methyl-3-pyridin-3-yl-4,5,6,7-tetrahydro-1H-pyrazolo[3,4-c]pyridine] | 1.1

Same assay, conditions: human PBMCs, test compound 10 μM

Row | SMILES | PBMC 10 μM (% control)
2 | C[C@H]1c2nnn(-c3ccn(C)n3)c2CCN1C(=O)c1cccc(C(F)(F)F)c1Cl (single isomer, unassigned) [Example 170, (S*)-(2-Chloro-3-(trifluoromethyl)phenyl)(4-methyl-1-(1-methyl-1H-pyrazol-3-yl)-6,7-dihydro-1H-[1,2,3]triazolo[4,5-c]pyridin-5(4H)-yl)methanone] | −5.7
3 | O=C(c1ccc(Cl)cc1Cl)N1CCc2c(nnn2-c2ncccn2)C1 [Example 257, (2,4-dichlorophenyl)(1-(pyrimidin-2-yl)-6,7-dihydro-1H-[1,2,3]triazolo[4,5-c]pyridin-5(4H)-yl)methanone] | 7.1
4 | C[C@H]1c2nnn(-c3ncccn3)c2CCN1C(=O)c1cccc(C(F)(F)F)c1F (single isomer, unassigned) [Example 270, (S*)-(2-fluoro-3-(trifluoromethyl)phenyl)(4-methyl-1-(pyrimidin-2-yl)-6,7-dihydro-1H-[1,2,3]triazolo[4,5-c]pyridin-5(4H)-yl)methanone] | 47.9
5 | CC1c2nnn(-c3ccc(F)cc3)c2CCN1C(=O)c1cccc(C(F)(F)F)c1Cl (stereo not drawn) [Example 83, 5-{[2-Chloro-3-(trifluoromethyl)phenyl]carbonyl}-1-(4-fluorophenyl)-4-methyl-4,5,6,7-tetrahydro-1H-[1,2,3]triazolo[4,5-c]pyridine] | 4.5
6 | CCc1ccnc(-n2nnc3c2CCN(C(=O)c2cccc(C(F)(F)F)c2Cl)[C@@H]3C)n1 (single isomer, unassigned) [Example 294, (R*)-(2-chloro-3-(trifluoromethyl)phenyl)(1-(4-ethylpyrimidin-2-yl)-4-methyl-6,7-dihydro-1H-[1,2,3]triazolo[4,5-c]pyridin-5(4H)-yl)methanone] | −8.1
7 | Cc1cccc(-n2nnc3c2CCN(C(=O)c2cccc(C(F)(F)F)c2Cl)C3C)n1 (stereo not drawn) [Example 302, (2-chloro-3-(trifluoromethyl)phenyl)(4-methyl-1-(6-methylpyridin-2-yl)-6,7-dihydro-1H-[1,2,3]triazolo[4,5-c]pyridin-5(4H)-yl)methanone] | −2.8
8 | O=C(c1ccc(F)cc1Cl)N1CCc2c(nnn2-c2ccccn2)C1 [Example 117, (2-Chloro-4-fluorophenyl)(1-(pyridin-2-yl)-6,7-dihydro-1H-[1,2,3]triazolo[4,5-c]pyridin-5(4H)-yl)methanone] | 4.3
9 | C[C@H]1c2nnn(-c3cccc(C(F)(F)F)n3)c2CCN1C(=O)c1cccc(C(F)(F)F)c1Cl (single isomer, unassigned) [Example 380, (S*)-(2-chloro-3-(trifluoromethyl)phenyl)(4-methyl-1-(6-(trifluoromethyl)pyridin-2-yl)-6,7-dihydro-1H-[1,2,3]triazolo[4,5-c]pyridin-5(4H)-yl)methanone] | 113.7
10 | C[C@H]1Cc2c(nnn2-c2ncc(F)cn2)CN1C(=O)c1ccc(Cl)c(F)c1Cl (single isomer, unassigned) [Example 218, (6S*)-5-[(2,4-Dichloro-3-fluorophenyl)carbonyl]-1-(5-fluoropyrimidin-2-yl)-6-methyl-4,5,6,7-tetrahydro-1H-[1,2,3]triazolo[4,5-c]pyridine] | 6.1
11 | Cc1c(C(=O)N2CCc3c(nnn3-c3ncccn3)[C@@H]2C)cccc1C(F)(F)F (single isomer, unassigned) [Example 197, (S*)-(4-methyl-1-(pyrimidin-2-yl)-6,7-dihydro-1H-[1,2,3]triazolo[4,5-c]pyridin-5(4H)-yl)(2-methyl-3-(trifluoromethyl)phenyl)methanone] | 2.1
12 | C[C@H]1Cc2c(nnn2-c2ncc(F)cn2)CN1C(=O)c1cccc(C(F)(F)F)c1 [Example 304, (S)-(1-(5-fluoropyrimidin-2-yl)-6-methyl-6,7-dihydro-1H-[1,2,3]triazolo[4,5-c]pyridin-5(4H)-yl)(3-(trifluoromethyl)phenyl)methanone] | 3.2
13 | Cc1nccc(-n2nnc3c2CCN(C(=O)c2ccnc(C(F)(F)F)c2F)C3C)n1 (stereo not drawn) [Example 401, (3-fluoro-2-(trifluoromethyl)pyridin-4-yl)(4-methyl-1-(2-methylpyrimidin-4-yl)-6,7-dihydro-1H-[1,2,3]triazolo[4,5-c]pyridin-5(4H)-yl)methanone] | 82.0
14 | C[C@H]1Cc2c(nnn2-c2cc(F)ccn2)CN1C(=O)c1cccc(Cl)c1Cl (single isomer, unassigned) [Example 196, (6S*)-5-[(2,3-Dichlorophenyl)carbonyl]-1-(4-fluoropyridin-2-yl)-6-methyl-4,5,6,7-tetrahydro-1H-[1,2,3]triazolo[4,5-c]pyridine] | −3.1
15 | CC1c2ncn(-c3ccccn3)c2CCN1C(=O)c1cccc(C(F)(F)F)c1F (single isomer, unassigned) [Example 42, (4R*)-5-{[2-Fluoro-3-(trifluoromethyl)phenyl]carbonyl}-4-methyl-1-pyridin-2-yl-4,5,6,7-tetrahydro-1H-imidazo[4,5-c]pyridine] | 5.8
16 | CC1Cc2c(nnn2-c2ccn[nH]2)CN1C(=O)c1cccc(C(F)(F)F)c1F (stereo not drawn) [Example 189, (2-fluoro-3-(trifluoromethyl)phenyl)(6-methyl-1-(1H-pyrazol-3-yl)-6,7-dihydro-1H-[1,2,3]triazolo[4,5-c]pyridin-5(4H)-yl)methanone] | 0.5
17 | O=C(c1cccc(C(F)(F)F)c1Cl)N1CCc2c(nc(C(F)(F)F)n2-c2ccccc2)C1 [Example 38, (2-Chloro-3-(trifluoromethyl)phenyl)(1-phenyl-2-(trifluoromethyl)-6,7-dihydro-1H-imidazo[4,5-c]pyridin-5(4H)-yl)methanone] | −0.3
18 | C[C@@H]1Cc2c(nnn2-c2ccn[nH]2)[C@H](C)N1C(=O)c1cccc(C(F)(F)F)c1Cl [Example 309, (2-chloro-3-(trifluoromethyl)phenyl)((4S,6R)-4,6-dimethyl-1-(1H-pyrazol-5-yl)-6,7-dihydro-1H-[1,2,3]triazolo[4,5-c]pyridin-5(4H)-yl)methanone] | 1.4
19 | C[C@@H]1c2nnn(-c3cc[nH]n3)c2CCN1C(=O)c1cccc(C(F)(F)F)c1Cl (single isomer, unassigned) [Example 133, (R*)-(2-Chloro-3-(trifluoromethyl)phenyl)(4-methyl-1-(1H-pyrazol-5-yl)-6,7-dihydro-1H-[1,2,3]triazolo[4,5-c]pyridin-5(4H)-yl)methanone] | −0.2
20 | C[C@@H]1c2ncn(-c3ncc(F)cn3)c2CCN1C(=O)c1cccc(C(F)(F)F)c1Cl (single isomer, unassigned) [Example 193, (R*)-(2-Chloro-3-(trifluoromethyl)phenyl)(1-(5-fluoropyrimidin-2-yl)-4-methyl-6,7-dihydro-1H-imidazo[4,5-c]pyridin-5(4H)-yl)methanone] | 1.4
21 | C[C@H]1Cc2c(nnn2-c2cc(F)ccn2)CN1C(=O)c1cccc(C(F)(F)F)c1Cl (single isomer, unassigned) [Example 199, (6S*)-5-{[2-Chloro-3-(trifluoromethyl)phenyl]carbonyl}-1-(4-fluoropyridin-2-yl)-6-methyl-4,5,6,7-tetrahydro-1H-[1,2,3]triazolo[4,5-c]pyridine] | 0.0
22 | CC1Cc2c(nnn2-c2ccccc2)C(C)N1C(=O)c1cccc(C(F)(F)F)c1Cl (stereo not drawn) [Example 240, (2-Chloro-3-(trifluoromethyl)phenyl)(4,6-dimethyl-1-phenyl-6,7-dihydro-1H-[1,2,3]triazolo[4,5-c]pyridin-5(4H)-yl)methanone] | −8.9
23 | Cc1cc(C)nc(-n2nnc3c2CCN(C(=O)c2cccc(C(F)(F)F)c2Cl)[C@@H]3C)n1 (single isomer, unassigned) [Example 181, (R*)-(2-chloro-3-(trifluoromethyl)phenyl)(1-(4,6-dimethylpyrimidin-2-yl)-4-methyl-6,7-dihydro-1H-[1,2,3]triazolo[4,5-c]pyridin-5(4H)-yl)methanone] | −0.1
24 | Cc1nc2c(n1-c1ccccc1)CCN(C(=O)c1cccc(Cl)c1Cl)C2 [Example 331, (2,3-dichlorophenyl)(2-methyl-1-phenyl-6,7-dihydro-1H-imidazo[4,5-c]pyridin-5(4H)-yl)methanone] | −11.0
25 | Cc1cc(-n2nnc3c2CCN(C(=O)c2cc(C(F)(F)F)ccc2Cl)[C@H]3C)ncc1F (single isomer, unassigned) [Example 354, (S*)-(2-chloro-5-(trifluoromethyl)phenyl)(1-(5-fluoro-4-methylpyridin-2-yl)-4-methyl-6,7-dihydro-1H-[1,2,3]triazolo[4,5-c]pyridin-5(4H)-yl)methanone] | 83.4
26 | CC1c2ncn(-c3ccc(F)cn3)c2CCN1C(=O)c1cccc(C(F)(F)F)c1Cl (stereo not drawn) [Example 11, (2-Chloro-3-(trifluoromethyl)phenyl)(1-(5-fluoropyridin-2-yl)-4-methyl-6,7-dihydro-1H-imidazo[4,5-c]pyridin-5(4H)-yl)methanone] | 3.7
27 | C[C@@H]1c2n[nH]c(-c3ncc(F)cn3)c2CCN1C(=O)c1cccc(C(F)(F)F)c1Cl (single isomer, unassigned) [Example 223, (R*)-(2-chloro-3-(trifluoromethyl)phenyl)(3-(5-fluoropyrimidin-2-yl)-7-methyl-4,5-dihydro-2H-pyrazolo[3,4-c]pyridin-6(7H)-yl)methanone] | 1.8

Same assay, conditions: test compound 10 μM, LPS 30 ng/ml + 0.5 mM Bz-ATP

Row | SMILES | PBMC 10 μM (% control)
28 | CC1c2ncn(-c3ccccn3)c2CCN1C(=O)c1cccc(C(F)(F)F)c1F (single isomer, unassigned) [Example 42, (4R*)-5-{[2-Fluoro-3-(trifluoromethyl)phenyl]carbonyl}-4-methyl-1-pyridin-2-yl-4,5,6,7-tetrahydro-1H-imidazo[4,5-c]pyridine] | 5.8
29 | C[C@@H]1c2ncn(-c3ncc(F)cn3)c2CCN1C(=O)c1cccc(C(F)(F)F)c1Cl (single isomer, unassigned) [Example 193, (R*)-(2-Chloro-3-(trifluoromethyl)phenyl)(1-(5-fluoropyrimidin-2-yl)-4-methyl-6,7-dihydro-1H-imidazo[4,5-c]pyridin-5(4H)-yl)methanone] | 1.4
30 | Cc1cc(C)nc(-n2nnc3c2CCN(C(=O)c2cccc(C(F)(F)F)c2Cl)[C@@H]3C)n1 (single isomer, unassigned) [Example 181, (R*)-(2-chloro-3-(trifluoromethyl)phenyl)(1-(4,6-dimethylpyrimidin-2-yl)-4-methyl-6,7-dihydro-1H-[1,2,3]triazolo[4,5-c]pyridin-5(4H)-yl)methanone] | −0.1
